Peptide text beside a SMILES is read from it.
Legend:
[1] = pH of the drug composition; assay type: physicochemical; conditions: aqueous solution
breast cancer 4T1 cells = assay: Tumor weight and tumor inhibition in BALB/c mice bearing breast cancer 4T1 cells; conditions: for Tumor inhibition rate / Tumor weight (g) (x ± s) / Tumor weight (x ± s) / Tumor weight: intratumoral 150 μl/mouse every 3 days x3; for Intratumoral injection Tumor inhibition rate / Intratumoral injection Tumor weight: Table 10, avg tumor volume 336 mm^3, 150 μl/mouse every 3 days x3, 5th day after last dose;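 for all read-outs here: subcutaneous grafts in the right axilla, tumors excised and weighed after euthanasia, inhibition rate derived from group mean tumor weight versus the negative control group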
Method: In the following examples, unless otherwise specified, animal tests of subcutaneous transplantation tumors were performed in accordance with test guidelines issued by a drug administration authority. […] The subcutaneous transplantation was carried out according to a conventional method for subcutaneous inoculation of tumor cells. […] Items to be observed, measured and analyzed in the experiments included general status, body weight, food intake, tumor volume, tumor weight, thymus weight, spleen weight, and the like.
(§3) The tumor growth inhibition rate (abbreviated as tumor inhibition rate in the present invention) is calculated through the following equation:
(§4) wherein TW is an average tumor weight of a study group; CW is an average tumor weight of a negative control group.
The effects of the co-use of drugs (including efficacy and safety) can theoretically be based on the judgment of q:
q=actual combined effect/theoretical expected effect of simple addition.
When q=1, the actual combined effect meets the theoretical expectation, showing an additive effect; when q<1, the actual combined effect is weaker than the theoretical expectation, showing an antagonistic effect; and when q>1, the actual combined effect exceeds the theoretical expectation, showing a synergic effect. Unless otherwise specified, single-use efficacy of A or B (denoted as EA and EB respectively) and the actual combined efficacy of A/B (denoted as EA+B) are both tumor inhibition rates.
In one experiment, the test animal was a BALB/c mouse, the modeling cells were breast cancer 4T1 cells, and the transplantation tumor was modeled at 1×10^6 cells/mouse under the skin of the animal's right axilla. […] The experimental groups were divided into 1 negative control group (group 0) and 13 study groups (groups 1-13). They were all injected intratumorally. […] Each group was administered once every 3 days for a total of 3 times, each time at an injection dose of 150 μl//mouse. During the administration, general state of the animals and the degree of necrosis of normal tissues around the tumor after the administration were observed. On the 5th day after the administration was ended, the animals were euthanized, and the tumor weight was measured after anatomy to the animals. The tumor inhibition rate was calculated from the negative control group of each administration mode.
In another experiment, the test animal was a BALB/c mouse, the modeling cells were breast cancer 4T1 cells, and the transplantation tumor was modeled at 1×10^6 cells/mouse under the skin of the animal's right axilla. […] Each group was administered by intratumoral injection once every 3 days for a total of 3 times, each time at an injection dose of 150 μl/mouse. On the 5th day after the administration was ended, the animals were euthanized, and the tumor weight was measured after anatomy to the animals. The tumor inhibition rate was calculated from the negative control group.
In another experiment, the test animal was BALB/c mice, the modeling cells were breast cancer 4T1 cells, and the transplantation tumor was modeled at 1×10^6 cells/mouse under the skin of the animal's right axilla. […] Each group was administered by intratumoral injection once every 3 days for a total of 3 times, each time at an injection dose of 150 μl/mouse. On the 5th day after the administration was ended, the animals were euthanized, and the tumor weight was measured after anatomy to the animals. The tumor inhibition rate was calculated from the negative control group.
In another experiment, the test animal was a BALB/c mouse, the modeling cells were breast cancer 4T1 cells, and the transplantation tumor under the skin of the animal's right axilla was modeled at 1×10^6 cells/mouse.

[2] = system: pancreatic cancer cells PANC-1; assay: Tumor inhibition in nude mice bearing pancreatic cancer cells PANC-1; assay type: in vivo; conditions: for Tumor inhibition rate of intraperitoneal injection / Tumor inhibition rate of intratumoral injection: Table 3, avg tumor volume 105 mm^3, 100 μl/mouse every 3 days x3, next day after last dose; for Tumor inhibition rate: Table 4, avg tumor volume 136 mm^3, intratumoral every 3 days x3, ≤150 μl, next day
Method: (§1) They were injected intraperitoneally and intratumorally.
After anatomy, the tumor weight was measured and the tumor inhibition rate was calculated.

[3] = system: human liver cancer cells (HepG2); assay: Tumor weight and tumor inhibition in nude mice bearing HepG2; assay type: in vivo; conditions: for Intratumoral injection Tumor inhibition rate / Intratumoral injection Tumor weight / Tumor inhibition rate of intraperitoneal injection: 5th day after last dose; for Y(%) tumor inhibition rate: intratumoral every 3 days x3, <150 μl, fifth day
Method: (§2) One of the core characteristics of tumors is heterogeneity. […] The corresponding negative control was normal saline.
as §1
The negative control group was given normal saline. The compositions of the study drug are as shown in the table below: 4 types and concentrations of amino acid based nutrient single drugs (X % amino acid based nutrients), 18 types and concentrations of ineffective absorption drugs (Y % ineffective absorption drugs), 24 compositions comprising various types and concentrations of amino acid based nutrients and ineffectively absorption drugs (X % amino acid based nutrients/Y % ineffectively absorption drugs).
The negative control was normal saline. The compositions of 16 study drugs, as shown in the table below, comprise: a 5-fluorouracil single drug of 4 varying concentrations (X % 5-fluorouracil), and an amino acid based nutrient with 5 varying concentrations (Y % amino acid based nutrient), 7 compositions consisting of 5-fluorouracil of varying concentrations and an amino acid based nutrient of varying concentrations (X % 5-fluorouracil/Y % amino acid based nutrient). […] The dose at each time was: 5-fluorouracil 50 mg/kg, glutathione ≤1 g/kg, and an injection volume was ≤150 μl/mouse.
The negative control was normal saline, the positive control was 1% 5-fluorouracil, and the study drug was 1% methylene blue/10% amino acid based nutrient composition (the type of the amino acid based nutrient is variable). The amino acid based nutrients in the compositions used in study groups 1-13 were: arginine, glycine, cysteine hydrochloride, valine, threonine, proline, histidine hydrochloride, phenylalanine, lysine, leucine, alanine, glutathione, serine, and the study drug used in the study group 14 was 1% methylene blue/5% arginine/5% glycine.

[4] = system: human head and neck cancer cells (Fμda); assay: Tumor inhibition in nude mice bearing human head and neck cancer cells (Fμda); assay type: in vivo; conditions: Example 2; intratumoral 100 μl/mouse every 3 days x3; next day; avg tumor volume 109 mm^3
Excerpt: as §2

[5] = system: human lung cancer cells (A549); assay: Tumor inhibition in nude mice bearing human lung cancer cells (A549); conditions: Example 2; intratumoral 100 μl/mouse every 3 days x3; next day; avg tumor volume 83 mm^3
Method: as §3, §4
(§5) In the following experiments, the nude mice bearing human tumor cells and successfully modeled were randomly divided into 1 negative control group and 4 study groups (groups A, B, C, and D). The corresponding negative control was normal saline. […] Each group was injected intratumorally, once every 3 days, for a total of 3 times, each time with 100 μl/mouse. On the next day after the administration of drugs was ended, the animals were euthanized, the tumor weight was measured after anatomy, and the tumor inhibition rate was calculated from the respective negative control group.
In this research experiment, successfully modeled nude mice bearing human lung cancer cells (A549) (with an average tumor volume of 83 mm^3) were randomly divided into a negative control group and 4 study groups (groups A, B, C, and D).

[6] = system: human ovary cancer cells (PA1); assay: Tumor inhibition in nude mice bearing human ovary cancer cells (PA1); conditions: Example 2; intratumoral 100 μl/mouse every 3 days x3; next day; avg tumor volume 104 mm^3
Method: as §3, §4
(§6) In the following experiments, the nude mice bearing human tumor cells and successfully modeled were randomly divided into 1 negative control group and 4 study groups (groups A, B, C, and D). The corresponding negative control was normal saline. The four study drugs were 20% arginine, 3% glutamic hydrochloride, 10% alanyl-glutamine, and 10% glutathione. Each group was injected intratumorally, once every 3 days, for a total of 3 times, each time with 100 μl/mouse. On the next day after the administration of drugs was ended, the animals were euthanized, the tumor weight was measured after anatomy, and the tumor inhibition rate was calculated from the respective negative control group.
(§7) In this series of experiments, successfully modeled nude mice bearing human cancer cells were randomly divided into 1 negative control group and 5 study groups (groups A, B, C, D and E). […] Each group was injected intratumorally, once every 3 days, for a total of 3 times, each time with 150 μl/mouse. On the next day after the administration was ended, the animals were euthanized, the tumor weight was measured after anatomy, and the tumor inhibition rate was calculated from the respective negative control group.
(§8) In this series of experiments, successfully modeled nude mice bearing human cancer cells were randomly divided into 1 negative control group and 6 study groups (groups A, B, C, D, E and F). […] Each group was injected intratumorally, once every 3 days, for a total of 3 times, each time with 100 μl/mouse. On the next day after the administration was ended, the animals were euthanized, the tumor weight was measured after anatomy, and the tumor inhibition rate was calculated from the respective negative control group.
(§9) In this series of experiments, successfully modeled nude mice bearing human cancer cells were randomly divided into 1 negative control group and 3 study groups. […] Each group was injected intratumorally, once every 3 days, for a total of 3 times, each time with 150 μl/mouse.

[7] = system: human thyroid cancer cells (SW579); assay: Tumor inhibition in nude mice bearing human thyroid cancer cells (SW579); conditions: Example 2; intratumoral 100 μl/mouse every 3 days x3; next day; avg tumor volume 103 mm^3
Method: as §3, §4, §6, §7, §8, §9

[8] = system: human stomach cancer cells (BGC823); assay: Tumor inhibition in nude mice bearing human stomach cancer cells (BGC823); conditions: Example 2; intratumoral 100 μl/mouse every 3 days x3; next day; avg tumor volume 85 mm^3
Method: as §3, §4, §5
In this research experiment, successfully modeled nude mice bearing human stomach cancer cells (BGC823) (with an average tumor volume of 85 mm^3) were randomly divided into a negative control group and 4 study groups (groups A, B, C, and D).

[9] = system: human breast cancer cells (MDA-MB231); assay: Tumor inhibition in nude mice bearing human breast cancer cells (MDA-MB231); conditions: Example 2; intratumoral 100 μl/mouse every 3 days x3; next day; avg tumor volume 71 mm^3
Method: as §3, §4, §6
In this research experiment, successfully modeled nude mice bearing human breast cancer cells (MDA-MB231) (with an average tumor volume of 71 mm^3) were randomly divided into a negative control group and 4 study groups (groups A, B, C, and D).
Each group was injected intratumorally, once every 3 days, for a total of 3 times, each time with 150 μl/mouse. On the next day after the administration was ended, the animals were euthanized, the tumor weight was measured after anatomy, and the tumor inhibition rate was calculated from the respective negative control group.
Each group was injected intratumorally, once every 3 days, for a total of 3 times, each time with 100 μl/mouse. On the next day after the administration was ended, the animals were euthanized, the tumor weight was measured after anatomy, and the tumor inhibition rate was calculated from the respective negative control group.

[10] = system: human nasopharynx cancer cells (CNE1); assay: Tumor inhibition in nude mice bearing human nasopharynx cancer cells (CNE1); conditions: Example 2; intratumoral 100 μl/mouse every 3 days x3; next day; avg tumor volume 78 mm^3
Method: as §3, §4, §5
In this research experiment, successfully modeled nude mice bearing human nasopharynx cancer cells (CNE1) (with an average tumor volume of 78 mm^3) were randomly divided into a negative control group and 4 study groups (groups A, B, C, and D).

[11] = system: human prostate cancer cells (LNCaP/AR); assay: Tumor inhibition in nude mice bearing human prostate cancer cells (LNCaP/AR); conditions: Example 2; intratumoral 100 μl/mouse every 3 days x3; next day; avg tumor volume 91 mm^3
Method: as §3, §4, §6
In this research experiment, successfully modeled nude mice bearing human prostate cancer cells (LNCaP/AR) (with an average tumor volume of 91 mm^3) were randomly divided into a negative control group and 4 study groups (groups A, B, C, and D).
as §7, §8
In this series of experiments, successfully modeled nude mice bearing human cancer cells were randomly divided into 1 negative control group and 3 study groups. […] Each group was injected intratumorally, once every 3 days, for a total of 3 times, each time with 150 μl/mouse. On the fifth day after the administration was ended, the animals were euthanized, the tumor weight was measured after anatomy, and the tumor inhibition rate was calculated from the respective negative control group.

[12] = Table 13, avg tumor volume 307 mm^3, 5th day
[13] = Example 2, intratumoral 100 μl/mouse every 3 days x3, next day, avg tumor volume 81 mm^3
[14] = Table 12, avg tumor volume 317 mm^3, 5th day
[15] = Table 14, avg tumor volume 325 mm^3, 5th day
[16] = Table 6, avg tumor volume 153 mm^3, ≤120 μl/mouse every 3 days x3
[17] = Table 8, avg tumor volume 175 mm^3, ≤150 μl/mouse every 3 days x3
[18] = Table 16, avg tumor volume 169 mm^3, intratumoral every 3 days x3, ≤150 μl/mouse, 5th day
[19] = Table 17, avg tumor volume 317 mm^3, fifth day
[20] = Table 15, avg tumor volume 316 mm^3, 5th day

O=C([O-])[O-].[Na+].[Na+] [14% sodium carbonate, sodium carbonate]
Drug pH ([1]; Table 13): 10.8
Tumor inhibition rate (breast cancer 4T1 cells; [12]): 35%
Tumor weight (g) (x ± s) (breast cancer 4T1 cells; [12]): 1.47 ± 0.24 g

O=C([O-])O.[Na+] [2% sodium bicarbonate, sodium bicarbonate]
Drug pH ([1]; Table 13): 6.9
Tumor inhibition rate (breast cancer 4T1 cells; [12]): 7%
Tumor weight (g) (x ± s) (breast cancer 4T1 cells; [12]): 2.10 ± 0.25 g

O=C([O-])[O-].[Na+].[Na+] [2.8% sodium carbonate, sodium carbonate]
Drug pH ([1]; Table 13): 10.9
Tumor inhibition rate (breast cancer 4T1 cells; [12]): 7%
Tumor weight (g) (x ± s) (breast cancer 4T1 cells; [12]): 2.10 ± 0.27 g

C[C@H](N)C(=O)N[C@@H](CCC(N)=O)C(=O)O [10% ALA-GLN, Alanyl-glutamine dipeptide] (H-Ala-Gln-OH)
Tumor inhibition rate of intraperitoneal injection [2]: 53%
Tumor inhibition rate of intratumoral injection [2]: 2%
Tumor inhibition rate [3, 13]: 56%
Tumor inhibition rate [4]: 51%
Tumor inhibition rate [5]: 52%
Tumor inhibition rate [6]: 62%
Tumor inhibition rate [7]: 59%
Tumor inhibition rate [8]: 51%
Tumor inhibition rate [9]: 57%
Tumor inhibition rate [10]: 63%
Tumor inhibition rate [11]: 61%

O=C([O-])O.[Na+] [10% sodium bicarbonate, sodium bicarbonate]
Drug pH ([1]; Table 13): 6.8
Tumor inhibition rate (breast cancer 4T1 cells; [12]): 30%
Tumor weight (g) (x ± s) (breast cancer 4T1 cells; [12]): 1.58 ± 0.22 g

O=C([O-])O.[Na+] [5% sodium bicarbonate, sodium bicarbonate]
Drug pH ([1]; Table 13): 6.9
Tumor inhibition rate (breast cancer 4T1 cells; [12]): 21%
Tumor weight (g) (x ± s) (breast cancer 4T1 cells; [12]): 1.79 ± 0.24 g

[Na+].[OH-] [1% NaOH, sodium hydroxide]
Drug pH ([1]; Table 14): 11.8
Intratumoral injection Tumor inhibition rate (breast cancer 4T1 cells): 41%
Intratumoral injection Tumor weight (breast cancer 4T1 cells): 0.76 ± 0.24 g
Tumor inhibition rate (breast cancer 4T1 cells; [14]): 41%
Tumor weight (x ± s) (breast cancer 4T1 cells; [14]): 1.39 g
Tumor inhibition rate (breast cancer 4T1 cells; [15]): 42%
Tumor weight (x ± s) (breast cancer 4T1 cells; [15]): 1.41 ± 0.23 g

O=c1[nH]cc(F)c(=O)[nH]1 [1% 5-fluorouracil, 5-fluorouracil]
Tumor inhibition rate of intraperitoneal injection [2]: 63%
Tumor inhibition rate of intratumoral injection [2]: 59%
Intratumoral injection Tumor inhibition rate [3, 16]: 66%
Intratumoral injection Tumor weight [3, 16]: 0.78 ± 0.21 g
Tumor inhibition rate of intraperitoneal injection [3, 16]: 59%
Intratumoral injection Tumor inhibition rate [3, 17]: 67%
Intratumoral injection Tumor weight [3, 17]: 0.84 ± 0.25 g
Tumor inhibition rate of intraperitoneal injection [3, 17]: 58%
Tumor inhibition rate [3, 18]: (66%)
Y(%) tumor inhibition rate ([3]; Table 18, avg tumor volume 186 mm^3): 61%
Y(%) tumor inhibition rate ([3]; Table 19, avg tumor volume 172 mm^3): 63%
Intratumoral injection Tumor inhibition rate (breast cancer 4T1 cells): 51%
Intratumoral injection Tumor weight (breast cancer 4T1 cells): 0.63 ± 0.21 g
Tumor inhibition rate (breast cancer 4T1 cells; [19]): 53%
Tumor weight (breast cancer 4T1 cells; [19]): 0.73 ± 0.21 g

CC(=O)O [15% acetic acid, acetic acid]
Drug pH ([1]; Table 15): 2.5
Tumor inhibition rate (breast cancer 4T1 cells; [20]): 68%
Tumor weight (x ± s) (breast cancer 4T1 cells; [20]): 0.70 ± 0.18 g

O=C([O-])[O-].[Na+].[Na+] [7% sodium carbonate, sodium carbonate]
Drug pH ([1]; Table 13): 10.8
Tumor inhibition rate (breast cancer 4T1 cells; [12]): 20%
Tumor weight (g) (x ± s) (breast cancer 4T1 cells; [12]): 1.81 ± 0.21 g

Cl.N[C@@H](CCC(=O)O)C(=O)O [3% glutamic hydrochloride, L-glutamic hydrochloride]
Tumor inhibition rate of intraperitoneal injection [2]: 68%
Tumor inhibition rate of intratumoral injection [2]: 5%
Tumor inhibition rate ([2]; hydrochloride): 69%
Tumor inhibition rate [3, 13]: 62%
Tumor inhibition rate [3, 18]: (70%)
Tumor inhibition rate [4]: 58%
Tumor inhibition rate [5]: 57%
Tumor inhibition rate [6]: 61%
Tumor inhibition rate [7]: 63%
Tumor inhibition rate [8]: 57%
Tumor inhibition rate [9]: 61%
Tumor inhibition rate [10]: 68%
Tumor inhibition rate [11]: 59%

N=C(N)NCCC[C@H](N)C(=O)O [10% arginine, L-arginine]
Tumor inhibition rate [2]: 43%
Tumor inhibition rate ([3]; Table 11, avg tumor volume 164 mm^3, intratumoral every 3 days x3, ≤150 μl, fifth day after last dose): (43%)
Tumor inhibition rate (breast cancer 4T1 cells; [14]): 19%
Tumor weight (x ± s) (breast cancer 4T1 cells; [14]): 1.91 g
Tumor inhibition rate (breast cancer 4T1 cells; [19]): 21%
Tumor weight (breast cancer 4T1 cells; [19]): 1.23 ± 0.31 g

N=C(N)NCCC[C@H](N)C(=O)O [15% arginine, L-arginine]
Drug pH ([1]; Table 13): 11.0
Intratumoral injection Tumor inhibition rate (breast cancer 4T1 cells): 28%
Intratumoral injection Tumor weight (breast cancer 4T1 cells): 0.92 ± 0.26 g
Tumor inhibition rate (breast cancer 4T1 cells; [12]): 23%
Tumor weight (g) (x ± s) (breast cancer 4T1 cells; [12]): 1.74 ± 0.28 g

NCC(=O)O [15% glycine, Glycine]
Drug pH ([1]; Table 15): 6.8
Tumor inhibition rate (breast cancer 4T1 cells; [20]): 17%
Tumor weight (x ± s) (breast cancer 4T1 cells; [20]): 1.81 ± 0.26 g

O=C([O-])O.[Na+] [4% sodium bicarbonate, sodium bicarbonate]
Drug pH ([1]; Table 15): 6.9
Tumor inhibition rate (breast cancer 4T1 cells; [20]): 23%
Tumor weight (x ± s) (breast cancer 4T1 cells; [20]): 1.68 ± 0.27 g

Source: patent US20220151935A1, “USE OF AMINO ACID BASED NUTRIENTS AND PHARMACEUTICAL COMPOSITION CONTAINING THE SAME” (priority 2018, published 2022)
